Tested on: HUVEC/MSC spheroids viability
Test: Human HUVEC/MSC cell line growth inhibition [KRAS2];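 as to viability, T/C: percent of DMSO vehicle control luminescence so 100% = untreated viability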
Details: for IC50: curve of first compound; for viability, T/C: stronger effect = lower value
From the text: Multicellular complex tumor spheroid response to RAS pathway inhibitors in combination with a targeted agents in patient-derived cell lines with oncogenic KRAS variants from multiple cancer types
A high-throughput screen of multi-cell type tumor spheroids was designed to identify active combinations of targeted small molecules and KRAS pathway inhibitors. Complex spheroids include a stromal component modeled by human endothelial cells (HUVEC) and fibroblasts modeled by human mesenchymal stem cells (MSCs). The concentration ranges selected for each drug and investigational agent were based upon clinically achievable concentrations if the clinical Cmax of the agent was known. * [This particular assayID is a followup dataset requested by reviewers of the manuscript. It is a test of the HUVEC and MSC without the tumor cells, and was conducted using different drug plates and a different plate layout.]
Compounds. The drugs and investigational agents: BI-3406 (NSC825286), BAY-293 (NSC824723), batoprotafib (TNO155; NSC825523), sotorasib (AMG 510; NSC818433), MRTX1257 (NSC819558), elimusertib (BAY 1895344; NSC800525), molibresib (GSK525762; NSC774829), temuterkib (LY3214996; NSC803410), venetoclax (NSC766270), alisertib (NSC759677), olaparib (NSC753686), talazoparib (NSC767125), erdafitinib (NSC781556), ipatasertib (NSC767898), cabozantinib (NSC761068), nintedanib (NSC756659), abemaciclib (NSC768073), docetaxel (NSC628503), trametinib (NSC758246), and sapanisertib (NSC764658) were obtained from the National Cancer Institute (NCI) Developmental Therapeutics Program Chemical Repository. The FDA-approved anticancer drug set is available from the Developmental Therapeutics Program. […] The stock solutions were prepared in dimethyl sulfoxide (DMSO, Sigma-Aldrich, St. Louis, MO, cat. D2650) at 800-fold the tested concentration and stored at -70 degrees C prior to their use. All drugs and investigational agents were tested over a range starting from a high concentration at or near the clinical Cmax and decreasing in half-log increments. If the clinical Cmax for an agent had not been determined, the highest concentration tested was 10 microM.
Cell Culture. All cells were maintained in an incubator at 37 degrees C and 5% CO2 with 95% humidity. The PDC lines were cultured according to standard operating procedures established by the NCI PDMR (https://pdmr.cancer.gov/sops/default.htm). Briefly, all PDCs were thawed and cultured in Matrigel-coated flasks prepared with a working solution of 1X Ham's F-12 nutrient mix, without supplementation (Invitrogen, Waltham, MA, cat. 11765054), 100 U/mL penicillin-streptomycin (Invitrogen, cat. 15140122), and 2.5% Matrigel (Corning Inc., Corning, NY, cat. 354248) for the first three passages. All PDCs were cultured in complete DMEM/F-12 media containing advanced DMEM/F-12 (Invitrogen, cat. 12634028), 4.9% defined fetal bovine serum, heat inactivated (HyClone Laboratories Inc., Logan, UT, cat. SH30070.03HI), 389 ng/mL hydrocortisone (Sigma-Aldrich, cat. H4001), 9.7 ng/mL human EGF recombinant protein (Invitrogen, cat. PHG0313), 23.4 microg/mL adenine (Sigma-Aldrich, cat. A2786), 97.3 U/mL penicillin-streptomycin (Invitrogen, cat. 15140122), 1.9 mM L-glutamine (Invitrogen, cat. 25030081), and 9.7 microM Y-27632 dihydrochloride (Tocris Bioscience, Bristol, United Kingdom, cat. 1254). The PDCs were cultured in complete DMEM/F12 media without 9.7 microM Y-27632 dihydrochloride for at least two passages prior to the screen. The established cell line HOP-62 was cultured in RPMI 1640 medium, HEPES (Invitrogen, cat. 22400105) with 10% defined fetal bovine serum (HyClone Laboratories Inc., cat. SH30070.03) and 2 mM L-glutamine (Invitrogen, cat. 25030081). The pooled donor HUVEC were cultured in endothelial cell growth medium 2 (PromoCell, Heidelberg, Germany, cat. C-22011) and the hMSC were cultured in mesenchymal stem cell growth medium 2 (PromoCell, cat. C-28009). […]

## COc1cc2nccc(Oc3ccc(NC(=O)C4(C(=O)Nc5ccc(F)cc5)CC4)cc3)c2cc1OC + C=CC(=O)N1CCN(c2nc(=O)n(-c3c(C)ccnc3C(C)C)c3nc(-c4c(O)cccc4F)c(F)cc23)C(C)C1
Second compound 0.0316 µM
  IC50: > 10 µM
Second compound 0.1 µM
  IC50: 6.21 µM
Second compound 0.316 µM
  IC50: 7.63 µM
Second compound 1 µM
  IC50: 9.55 µM
Second compound 3.16 µM
  IC50: > 10 µM
Second compound 10 µM
  IC50: 8.55 µM
Second compound 0.0316 µM, first compound 0.0316 µM
  viability, T/C: 66.7%
Second compound 0.0316 µM, first compound 0.1 µM
  viability, T/C: 102%
Second compound 0.0316 µM, first compound 0.316 µM
  viability, T/C: 63.2%
Second compound 0.0316 µM, first compound 1 µM
  viability, T/C: 72.4%
Second compound 0.0316 µM, first compound 3.16 µM
  viability, T/C: 77.2%
Second compound 0.0316 µM, first compound 10 µM
  viability, T/C: 51.5%
Second compound 0.1 µM, first compound 0.0316 µM
  viability, T/C: 61.5%
Second compound 0.1 µM, first compound 0.1 µM
  viability, T/C: 71%
Second compound 0.1 µM, first compound 0.316 µM
  viability, T/C: 89.2%
Second compound 0.1 µM, first compound 1 µM
  viability, T/C: 92.6%
Second compound 0.1 µM, first compound 3.16 µM
  viability, T/C: 91.7%
Second compound 0.1 µM, first compound 10 µM
  viability, T/C: 27.8%
Second compound 0.316 µM, first compound 0.0316 µM
  viability, T/C: 79.2%
Second compound 0.316 µM, first compound 0.1 µM
  viability, T/C: 108%
Second compound 0.316 µM, first compound 0.316 µM
  viability, T/C: 96.6%
Second compound 0.316 µM, first compound 1 µM
  viability, T/C: 80.6%
Second compound 0.316 µM, first compound 3.16 µM
  viability, T/C: 83.3%
Second compound 0.316 µM, first compound 10 µM
  viability, T/C: 40.2%
Second compound 1 µM, first compound 0.0316 µM
  viability, T/C: 87%
Second compound 1 µM, first compound 0.1 µM
  viability, T/C: 89.5%
Second compound 1 µM, first compound 0.316 µM
  viability, T/C: 111%
Second compound 1 µM, first compound 1 µM
  viability, T/C: 92.4%
Second compound 1 µM, first compound 3.16 µM
  viability, T/C: 92.6%
Second compound 1 µM, first compound 10 µM
  viability, T/C: 48.2%
Second compound 3.16 µM, first compound 0.0316 µM
  viability, T/C: 103%
Second compound 3.16 µM, first compound 0.1 µM
  viability, T/C: 124%
Second compound 3.16 µM, first compound 0.316 µM
  viability, T/C: 129%
Second compound 3.16 µM, first compound 1 µM
  viability, T/C: 88%
Second compound 3.16 µM, first compound 3.16 µM
  viability, T/C: 84.2%
Second compound 3.16 µM, first compound 10 µM
  viability, T/C: 56.9%
Second compound 10 µM, first compound 0.0316 µM
  viability, T/C: 112%
Second compound 10 µM, first compound 0.1 µM
  viability, T/C: 102%
Second compound 10 µM, first compound 0.316 µM
  viability, T/C: 109%
Second compound 10 µM, first compound 1 µM
  viability, T/C: 97.9%
Second compound 10 µM, first compound 3.16 µM
  viability, T/C: 123%
Second compound 10 µM, first compound 10 µM
  viability, T/C: 40.7%
